Key:
Assay in all cases: normalised response (% of control), CellTox Green; higher = less cell death (100 = DMSO, 0 = benzethonium chloride kill control)
Conditions in all cases: incubation time: 72 h
HCC1599 = system: HCC1599
Procedure, shortened: (§1)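 After 72 h with compound in 384-well plates, breast cancer cell lines seeded as 20 µl suspension were read for CellTox Green fluorescence at 485/520 nm. CellTiter-Glo luminescence was then read after 10 min at room temperature. Compound was present at 5 concentrations in 10-fold steps over a 10,000-fold range set per compound, and plates were normalised to 0.1 % DMSO (100) and a positive kill control (0). Values are normalised signals, each at a single concentration.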

MDA-MB-231 = system: MDA-MB-231
Procedure, shortened: as §1

HDQ-P1 = system: HDQ-P1
Procedure, shortened: as §1

MFM-223 = system: MFM-223
Procedure, shortened: as §1

MDA-MB-468 = system: MDA-MB-468
Procedure, shortened: as §1

CAL-51 = system: CAL-51
Procedure, shortened: as §1

CAL-148 = system: CAL-148
Procedure, shortened: as §1

CAL-120 = system: CAL-120
Procedure, shortened: as §1

MDA-MB-453 = system: MDA-MB-453
Procedure, shortened: as §1

CAL-85-1 = system: CAL-85-1
Procedure, shortened: as §1

HCC1937 = system: HCC1937
Procedure, shortened: as §1

BT-474 = system: BT-474
Procedure, shortened: as §1

MDA-MB-436 = system: MDA-MB-436
Procedure, shortened: as §1

DU-4475 = system: DU-4475
Procedure, shortened: as §1

MCF-10A = system: MCF-10A
Procedure, shortened: as §1

BT-549 = system: BT-549
Procedure, shortened: as §1

HCC1143 = system: HCC1143
Procedure, shortened: as §1

Hs578T = system: Hs578T
Procedure, shortened: as §1

Row | SMILES | normalised response (HCC1599) | normalised response (MDA-MB-231) | normalised response (HDQ-P1) | normalised response (MFM-223) | normalised response (MDA-MB-468) | normalised response (CAL-51) | normalised response (CAL-148) | normalised response (CAL-120) | normalised response (MDA-MB-453) | normalised response (CAL-85-1) | normalised response (HCC1937) | normalised response (BT-474) | normalised response (MDA-MB-436) | normalised response (DU-4475) | normalised response (MCF-10A) | normalised response (BT-549) | normalised response (HCC1143) | normalised response (Hs578T)
1 | CN1CCC(COc2cnc(-c3cccc(Cn4nc(-c5cccc(C#N)c5)ccc4=O)c3)nc2)CC1 (1000 nM) | 106% | 125% | 95.5% | 94% | 140% | 99.9% | 103% | 95.6% | 105% | 85% | 123% | 98.4% | 112% | 105% | 88.3% | 115% | 128% | –
2 | CN(C)C/C=C/C(=O)Nc1cc2c(Nc3ccc(F)c(Cl)c3)ncnc2cc1O[C@H]1CCOC1 [Afatinib] (1000 nM) | 104% | 117% | 93.8% | 99.8% | 110% | 106% | 94.1% | 94.1% | 97.1% | 66.4% | – | 52.4% | 102% | 106% | 99.6% | 107% | – | –
3 | CN1CC[C@H](c2c(O)cc(O)c3c(=O)cc(-c4ccccc4Cl)oc23)[C@H](O)C1 [Alvocidib] (1000 nM) | 50.4% | 30.7% | 58% | 56.6% | 109% | 77.1% | -101% | 85.3% | 97.7% | 24.9% | 115% | 90.2% | 80.5% | 85.3% | 18.7% | 83.2% | 85.1% | 65.7%
4 | CN1CC[C@H](c2c(O)cc(O)c3c(=O)cc(-c4ccccc4Cl)oc23)[C@H](O)C1 [Alvocidib] (10000 nM) | 86% | 25.4% | 71.5% | 47.7% | 52.6% | 63.9% | 92% | 81.8% | 102% | -9.96% | 92.3% | 88.8% | 100% | 94.9% | -1.97% | 66.1% | 92.5% | 12.8%
5 | Nc1nc(Cl)nc2c1ncn2[C@H]1C[C@H](O)[C@@H](CO)O1 [Cladribine] (100 nM) | 98.3% | – | 110% | 78.7% | 72.2% | 109% | 95.7% | 101% | 108% | 104% | 85.4% | 99.7% | 73.8% | 103% | – | 127% | 119% | 98%
6 | Nc1nc(Cl)nc2c1ncn2[C@H]1C[C@H](O)[C@@H](CO)O1 [Cladribine] (1000 nM) | 96% | 86.3% | 95.9% | 74.4% | 50.6% | 107% | 73.7% | 101% | 101% | 83.4% | 92.2% | 102% | 85.4% | 100% | 100% | 86.3% | – | 111%
7 | Nc1ccn([C@@H]2O[C@H](CO)[C@@H](O)[C@@H]2O)c(=O)n1 [Cytarabine] (1000 nM) | 104% | 106% | 107% | 97.5% | 159% | 37.4% | 69.9% | 106% | 112% | 109% | 117% | 103% | 83.5% | 109% | 115% | 111% | 112% | 85.2%
8 | Nc1ccn([C@@H]2O[C@H](CO)[C@@H](O)[C@@H]2O)c(=O)n1 [Cytarabine] (10000 nM) | 95.5% | 113% | 111% | 107% | 156% | 26.1% | 69.2% | 108% | 104% | 91.7% | 96.1% | 100% | 93.6% | 101% | 48.4% | 99.4% | 64.6% | 134%
9 | Cc1c2oc3c(C)ccc(C(=O)N[C@@H]4C(=O)N[C@H](C(C)C)C(=O)N5CCC[C@H]5C(=O)N(C)CC(=O)N(C)[C@@H](C(C)C)C(=O)O[C@@H]4C)c3nc-2c(C(=O)N[C@@H]2C(=O)N[C@H](C(C)C)C(=O)N3CCC[C@H]3C(=O)N(C)CC(=O)N(C)[C@@H](C(C)C)C(=O)O[C@@H]2C)c(N)c1=O [Dactinomycin] (100 nM) | 75.9% | 17.9% | 61.8% | 78.6% | 56.9% | 29.5% | 23.9% | 85.4% | 98% | 31.6% | 109% | 76.7% | 89.8% | 81.8% | -3.54% | 33.4% | 91% | 26.1%
10 | Cc1c2oc3c(C)ccc(C(=O)N[C@@H]4C(=O)N[C@H](C(C)C)C(=O)N5CCC[C@H]5C(=O)N(C)CC(=O)N(C)[C@@H](C(C)C)C(=O)O[C@@H]4C)c3nc-2c(C(=O)N[C@@H]2C(=O)N[C@H](C(C)C)C(=O)N3CCC[C@H]3C(=O)N(C)CC(=O)N(C)[C@@H](C(C)C)C(=O)O[C@@H]2C)c(N)c1=O [Dactinomycin] (1000 nM) | 113% | 52.3% | 94.9% | 60.5% | 52.8% | 95.1% | 79.9% | 101% | 104% | 13.8% | 124% | 89.6% | 116% | 104% | 41.4% | 93% | 59.3% | 40.6%
11 | COc1cccc2c1C(=O)c1c(O)c3c(c(O)c1C2=O)C[C@@](O)(C(=O)CO)C[C@@H]3O[C@H]1C[C@H](N)[C@H](O)[C@H](C)O1 [Doxorubicin] (100 nM) | 100% | 111% | 78.6% | 86.3% | 151% | 43.3% | 81.4% | 100% | 109% | 96.4% | 134% | 105% | 95.2% | 96.4% | 115% | 160% | – | 103%
12 | Cc1ccc(F)c(NC(=O)Nc2ccc(-c3cccc4[nH]nc(N)c34)cc2)c1 [Linifanib] (1000 nM) | 104% | 110% | – | 101% | 86.9% | 99.5% | 95.7% | 97.9% | 102% | 65.7% | 104% | 101% | 107% | 106% | 90% | 122% | 87.2% | 105%
13 | Clc1ccc(C(c2ccccc2Cl)C(Cl)Cl)cc1 (centres undefined) [Mitotane] (1000 nM) | 93.5% | 95.2% | 56.1% | 93.7% | 140% | 103% | 104% | 98.1% | 100% | 108% | 99.9% | 100% | 96.3% | 98.3% | 96.4% | 115% | 87% | –
14 | Clc1ccc(C(c2ccccc2Cl)C(Cl)Cl)cc1 (centres undefined) [Mitotane] (10000 nM) | 99.5% | – | 106% | 96.9% | 80.3% | 98.5% | 98.1% | 95.6% | 104% | 107% | – | 98% | 99.5% | 97.7% | 100% | 93.4% | 68.9% | 105%
15 | COc1cccc2cc(-c3nc([C@H]4CC[C@H](C(=O)O)CC4)n4ncnc(N)c34)[nH]c12 [OSI-027] (1000 nM) | 101% | 65% | 108% | 98.9% | 119% | 104% | 107% | 97.3% | 105% | 93.6% | – | 100% | 91.9% | 97.3% | 106% | 102% | – | 106%
16 | N#CC[C@H](C1CCCC1)n1cc(-c2ncnc3[nH]ccc23)cn1 [Ruxolitinib] (1000 nM) | 95.2% | 107% | 86.3% | 96.2% | 119% | 111% | 104% | 96.5% | 102% | 108% | – | 100% | 96.2% | 95.8% | – | 127% | 102% | 83.8%
17 | N#CC[C@H](C1CCCC1)n1cc(-c2ncnc3[nH]ccc23)cn1 [Ruxolitinib] (10000 nM) | 96.7% | 93.4% | – | 94.1% | 149% | 76.2% | 95.1% | 98.7% | 98.4% | 84.8% | – | 98.6% | 97.7% | 98.2% | 90% | 113% | 98.3% | 118%
18 | C=CC[C@@H]1/C=C(\C)C[C@H](C)C[C@H](OC)[C@H]2O[C@@](O)(C(=O)C(=O)N3CCCC[C@H]3C(=O)O[C@H](/C(C)=C/[C@@H]3CC[C@@H](O)[C@H](OC)C3)[C@H](C)[C@@H](O)CC1=O)[C@H](C)C[C@@H]2OC [Tacrolimus] (1000 nM) | 90.2% | 108% | – | – | 130% | 110% | 104% | 99.5% | 106% | 96.3% | 97.2% | 99.5% | 89.6% | 100% | 108% | 116% | 102% | –
19 | C=CC[C@@H]1/C=C(\C)C[C@H](C)C[C@H](OC)[C@H]2O[C@@](O)(C(=O)C(=O)N3CCCC[C@H]3C(=O)O[C@H](/C(C)=C/[C@@H]3CC[C@@H](O)[C@H](OC)C3)[C@H](C)[C@@H](O)CC1=O)[C@H](C)C[C@@H]2OC [Tacrolimus] (10000 nM) | 100% | – | 88.2% | 98.3% | 52.5% | 97.9% | 95.8% | 97.6% | 100% | 92.3% | 93.6% | 101% | 92.5% | 99.8% | 70.6% | 103% | 91.2% | 112%
20 | C[C@]1(c2nc3c(C(N)=O)cccc3[nH]2)CCCN1 [Veliparib] (10000 nM) | 117% | 88.2% | 90.5% | 92.3% | 125% | 86.6% | – | 98.2% | 95.4% | 87.9% | 110% | 96.5% | 112% | 103% | 107% | 106% | 110% | 109%
21 | CS(=O)(=O)c1ccc(C(=O)Nc2ccc(Cl)c(-c3ccccn3)c2)c(Cl)c1 [Vismodegib] (1000 nM) | 85.9% | 90.8% | 88.1% | 99.1% | 149% | 86.1% | 104% | 95% | 99.7% | 94.4% | 106% | 100% | 98% | 99% | 88.2% | 99.3% | – | 100%
